Results from patent US20250263437A1, “POLYPEPTIDE FOR REPAIRING SKIN WOUND OR MUCOSAL INJURY, AND APPLICATION THEREOF” (Sichuan Gooddoctor Panxi Pharmaceutical Co., Ltd., priority 2021, published 2025).
Entries after “also recorded” stand apart in the source; their conditions may differ. Where no end group is shown, it is not given here.

Key:
FGFR1 = FGFR1 (Homo sapiens, UniProt P11362); test: FGFR receptor binding assay: ultrafiltration/mass spectrometry affinity screening to FGFR1 protein target; details: ratio of lower-layer to upper-layer compound MS signal intensity; the greater the ratio, the stronger the affinity
Chain of FGFR1 (P11362 22-822, species assumed): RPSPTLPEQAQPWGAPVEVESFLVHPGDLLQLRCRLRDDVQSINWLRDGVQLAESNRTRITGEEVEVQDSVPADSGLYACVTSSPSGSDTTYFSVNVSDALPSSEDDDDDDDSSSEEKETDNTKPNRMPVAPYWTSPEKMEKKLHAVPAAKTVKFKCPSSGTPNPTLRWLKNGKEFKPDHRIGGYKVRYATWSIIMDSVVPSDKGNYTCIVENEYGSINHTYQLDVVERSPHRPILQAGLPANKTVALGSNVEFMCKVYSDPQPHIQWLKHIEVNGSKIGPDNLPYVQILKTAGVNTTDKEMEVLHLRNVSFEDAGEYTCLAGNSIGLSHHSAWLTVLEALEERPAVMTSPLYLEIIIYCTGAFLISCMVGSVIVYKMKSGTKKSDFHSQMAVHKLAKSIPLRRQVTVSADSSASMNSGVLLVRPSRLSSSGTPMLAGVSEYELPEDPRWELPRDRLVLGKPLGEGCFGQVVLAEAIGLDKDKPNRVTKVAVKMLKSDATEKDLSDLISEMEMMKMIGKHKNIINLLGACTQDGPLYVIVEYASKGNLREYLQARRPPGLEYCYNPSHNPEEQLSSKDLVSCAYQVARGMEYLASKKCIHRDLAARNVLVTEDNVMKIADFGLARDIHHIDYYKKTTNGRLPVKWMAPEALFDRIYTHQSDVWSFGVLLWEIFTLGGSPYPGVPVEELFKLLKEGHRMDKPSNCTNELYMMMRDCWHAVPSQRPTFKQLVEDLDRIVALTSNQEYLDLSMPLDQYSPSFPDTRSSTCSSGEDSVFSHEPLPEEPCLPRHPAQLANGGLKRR
Description: The affinity of the polypeptide compound prepared by the present invention to FGFR1 was tested by using a control FGFR1 allosteric inhibitor (product number SSR128129E from Sigma) as a positive compound control.
Screening for the affinity to FGFR1 was as follows: FGFR1 solutions with an appropriate concentration were taken, the positive compound SSR128129E (Sigma) at an appropriate concentration and sample solutions of the inventive polypeptide compounds, as freeze-dried powders, dissolved in protein buffers were then respectively added. After incubation at room temperature for 50 min, ultrafiltration and screening were carried out to obtain various treated solutions. An appropriate volume of acetonitrile was added to each treated solution to precipitate a protein, the solution was then centrifuged, and the supernatant was taken and analyzed by mass spectrometry.
Affinity screening conditions: One-dimensional liquid-phase conditions were: chromatographic column; PolyLC chromatographic column, mobile phase A: KH2PO4, NaCl, pH 7.5, mobile phase B: acetonitrile, column temperature: 8° C., flow rate: 1 mL/min, and injection volume: appropriate; and two-dimensional liquid-phase conditions were: chromatographic column: BONUS RRHD, mobile phase A: 0.1% formic acid aqueous solution, mobile phase B: 0.1% formic acid in acetonitrile, column temperature: 60° C., flow rate: 0.3 mL/min, and injection volume: 40 uL. Gradient elution was used, i.e., 98% A (0-1 min), 98-10% A (1-6 min), 10% A (6-7.5 min), 10-98% A (7.5-8 min), and 98% A (8-9.5 min). Mass spectrometry conditions: Agilent 6530 Q-Tof, ESI ion source, voltage 3.5 KV, mass-to-charge ratio scanning range m/z=200-3000, acquisition mode: positive ion scanning, ion source temperature: 350° C., solvent removal temperature: 300° C., and nitrogen flow rate: 8 L/min.

[1] = tested on: ethanol-induced gastric ulcer model in mice; test: Anti-ulcer effect on ethanol-induced gastric ulcer model in mice; type: in vivo; details: single administration; ulcer inhibition rate of test compound / ulcer inhibition rate of Compound 1
Description: Experimental animals: Six-week old C57BL/6JGPt male mice, weighing about 20 g/mouse, were selected, with 10 mice in each group, from GemPharmatech (Chengdu) Co., Ltd., animal license number: SCXK (Chuan) 2020-034. After the experimental animals were divided into groups, they were dosed according to Table 5 one day before the experiment. Among the groups, the model group was given 200 μl of pure water, and the other dose groups were given 200 μl of drug solution. After that, all the animals were fasted for 24 h with free access to water. The next day, 1 h after administration, the mice in each group were given 9 μl/g of absolute ethanol by oral gavage for modeling. After 1 h, the animals were sacrificed by cervical dislocation, the gastric cardia was ligated, the pylorus was occluded, and the whole stomach was removed. 1 mL of 1% formaldehyde solution was injected into the gastric lumen via the glandular stomach, the cardia was ligated, and the stomach was taken out and immediately immersed in 1% formaldehyde solution. After soaking for 30 min, the stomach tissue was taken out and cut open along the greater curvature. The content of the stomach was rinsed off with normal saline, the injury of the gastric mucosa in the mice were observed and measured after being laid flat, and the ulcer index and ulcer inhibition rate were calculated; panoramic photos of the stomach were taken; and finally, the gastric tissue sample was immersed in formalin and fixed. Calculation method for ulcer index: If the length of cord-like injury was greater than 1 mm, the length thereof was measured, with 1 point per millimeter; if the width thereof was greater than 1 mm, the score thereof was doubled according to the number of millimeters of the width; and if the length was less than 1 mm, a score of 0.5 was given, and the scores were added up to obtain the ulcer index of the animal. Method of data statistics: the ulcer index was expressed as mean±standard deviation; the ulcer inhibition rate was calculated by using the median value and mean value of the ulcer index in each dosage group and simulation group; and the data were statistically analyzed by means of Excel, and the difference data of the gastric ulcer index were statistically analyzed by means of independent sample T test.

HaCaT cells = test: Proliferation of HaCaT cells (CCK8); type: cell-based, human; details: 0.2-0.8 μg/mL; 24 h, 48 h and 72 h; 1% serum
Description: Experimental method: Immortalized human keratinocytes (HaCaT cells) was adjusted to a concentration of 1.0×10^5 to 5.0×10^5/mL for passaging, and they were cultured at 37° C. and 5% CO2 for 24-36 h for biological activity detection. The cells were digested with 0.25% trypsin for 5 min, 1640 whole blood culture medium, the volume of which was not less than 1 time of the volume of the trypsin, was added to stop digestion, a cell suspension was collected, centrifuged at 1000 RPM for 3 min, the supernatant was discarded, 2 mL of 1640 whole blood culture medium was added to suspend the cells, 20 μL of the cell suspension was taken and stained with AOPI, the concentration of cells in the suspension was then detected by a cell counter, the suspension was prepared to a concentration of 5×10^4/mL with 1640 culture medium containing serum at a concentration of 10% and inoculated into a 96-well cell culture plate, with 100 μL per well, i.e., 5000 cells/well, and the plate was cultured at 37° C. and 5% CO2 overnight.
After 24 h, the original culture medium was discarded, and 100 μL of polypeptide compound solutions with different concentrations prepared with 1640 culture medium containing serum at a concentration of 1% were added, such that the final concentrations of the polypeptide compounds to be tested were 0.2, 0.4 and 0.8 ug/mL, respectively. In addition, an EGF control group was prepared by adding 100 μL of a recombinant human epidermal growth factor (EGF) solution prepared with 1640 culture medium containing serum at a concentration of 1%, with the final concentration being 100 ng/ml. In the model control group, an equal volume of 1640 culture medium containing serum at a concentration of 1% was added. After culturing at 37° C. and 5% CO2 for 24 h, 48 h and 72 h, the proliferation of the HaCaT cell line was detected by means of CCK8 kit.

RSC96 cells = test: Proliferation of RSC96 cells (CCK-8); type: cell-based; details: 0.2, 0.4 and 0.8 ug/ml; 48 h; 0% serum
Description: Glial cells (RSC96 cells) were adjusted to a concentration of 1.0×10^5 to 5.0×10^5/mL for passaging and cultured at 37° C. and 5% CO2 for 24-36 h for biological activity detection. The cells were digested by trypsin, collected, prepared to a concentration of 5×10^4/mL with a serum-free medium, inoculated into a 96-well cell culture plate, with 100 μL per well, i.e., 5000 cells/well, and cultured overnight at 37° C. and 5% CO2. The polypeptide compound of the present invention was prepared to test concentrations (0.2 ug/ml, 0.4 ug/ml, and 0.8 ug/ml) with 0% serum culture medium as experimental groups, and an equal amount of 0% serum drug-free culture medium was added to the control group. They were added to 4 duplicate wells, and the resultants were incubated at 37° C. and 5% CO2 for 48 h. Detection of the proliferation of cells using CCK-8: the old culture medium was removed, and a serum-free medium containing 10% CCK-8 was added to each well. After incubation in an incubator for 2 h, the absorbance at 450 nm was measured by a microplate reader.

**Q.** What does the source list for AAVLDKLE [Compound 68]?
**A.** Cb/Ct range (FGFR1): 1.0-3; Anti-ulcer activity (mean relative ulcer inhibition rate) [1]: 0.85; effect on proliferation of HaCaT cells (HaCaT cells): proliferation-promoting effect; effect on proliferation of RSC96 cells (RSC96 cells): significant proliferation promoting effects

**Q.** What does the source list for SMQASLEAEAKGKAE [Compound 1]?
**A.** Cb/Ct range (FGFR1): 1.0-3; Anti-ulcer activity (mean relative ulcer inhibition rate) [1]: 1.00; effect on proliferation of HaCaT cells (HaCaT cells): proliferation-promoting effect; effect on proliferation of RSC96 cells (RSC96 cells): significant proliferation promoting effects; also recorded: proliferation-promoting effect

**Q.** VDAAVLEKLE [Compound 67] was tested. Which Cb/Ct range (FGFR1) did it give?
**A.** Its Cb/Ct range is 1.0-3.

**Q.** What about the “Anti-ulcer activity (mean relative ulcer inhibition rate)” value [1] of the same sequence?
**A.** Its value is 0.24.

**Q.** And the “effect on proliferation of HaCaT cells” value (HaCaT cells)?
**A.** Its value is “proliferation-promoting effects”.

**Q.** What about the “effect on proliferation of RSC96 cells” value (RSC96 cells) of the same sequence?
**A.** The value was “proliferation-promoting effect”.
